# Data: US20220273660A1, “MEK INHIBITOR FOR TREATMENT OF STROKE” (EDVINCE AB, priority 2019, published 2022)
# “Also recorded” adds a separate entry of the source.
# Columns and labels:
# [1] = tested on: rat middle cerebral arteries (ETB receptor); test: 48 h in vitro organ culture of MCAs, wire myography (S6c, ET-1); assay type: cell-based
# Method: MCAs from naïve rats were dissected and segments (1.5 mm) were incubated for 48 h in Dulbecco's modified Eagle's medium contained L-glutamine (584 mg/L) supplemented with penicillin (100 U/ml) and streptomycin ([…]) at humidified 5% CO2 atmosphere. Before incubation, 4 different concentrations of trametinib (5 μM, 1 μM, 0.1 μM or 0.03 μM), dissolved in 0.1% dimethyl sulfoxide (DMSO) in NaCl, or 0.1% DMSO in NaCl (vehicle) was added.
# [2] = tested on: ETB receptor; test: Intracellular flow cytometry of SMC expressing ETB receptor after SAH; assay type: in vivo, rat; details: i.p. at 6 and 24 h post-SAH
# Method: The MCAs, BA and the circle of Willis were pooled from one rat. The VSMCs of the cerebral arteries was isolated by a novel technique advanced by the present inventors based on two other protocols (Navone et al, 2013, Nat Protoc; van Beijnum et al, 2008, Nat Protoc). The tissue were disrupted mechanically (scalpel) and then subjected to enzymatic digestion with highly purified Collagenase I and Collagenase II. Isolated cell suspensions were fixed with 4% paraformaldehyde for 30 minutes, washed with PBS and thereafter permeabilized with 0.25% TritonX-100. Cells were resuspended in blocking buffer containing 5% donkey serum and double-stained overnight at 4° C. with primary goat anti-SM22α (1:100, Abcam) or goat isotope control IgG (5 μg/mL, Abcam) and primary antibody rabbit anti-ETB (1:100, Abcam) or rabbit isotope control IgG (10 μg/mL, Abcam) in the same blocking buffer. […] Finally, cell suspensions were diluted to a final volume of 0.5 mL with PBS before analyzed by fluorescent-activated cell sorting (FACS) on the BD FACSVerse machine (BD Biosciences, USA). Fluorescence was induced with a 640 nm red laser. The ratio of SM22α-positive cells expressing ETB was calculated in each sample. Data was analyzed by the BD FACSuite Software.
# [3] = tested on: rat subarachnoid haemorrhage model; test: Rat SAH model, intrathecal treatment, myograph of basilar arteries; assay type: in vivo
# Method: For contractility measurements, both incubated BAs (ex vivo) and BAs after surgical procedure (in vivo) were cut into segments and mounted on a pair of metal wires (40 μm) in a myograph bath. The arteries from OC were mounted the same way after 48 hours in media. One wire was attached to a micro-meter screw which allows for fine adjustments of the distance between the wires, controlling the vascular tone.
# The arterial segments were exposed two or three times with 60 mM K^+, by exchanging the buffer with a 60 mM K^+ buffer solution. To maintain equal osmolarity, a proportional amount of Na^+ had been removed from the buffer. An absolute cut-off was set at 2.0 mN K^+max for inclusion of arterial segments from rats that underwent the surgical procedure. Endothelium function was evaluated with the addition of 5-HT (3.10^−7 M) followed by carbachol (10^−5 M). For arteries from the OC the protocol was as followed: first a cumulative concentration-response curve to sarafotoxin 6C (S6c, 10^−14-10^−7 M), followed by a concentration-response curve to endothelin-1 (ET-1, 10^−14-10^−7 M). At peak ET-1 (10^−7 M), the buffer was changed to a Ca^2+-free buffer containing 10^−7 M ET-1 and nimodipine (L-type of voltage dependent Ca^2+ channel entry blocker, 10^−7 M). […] When vasodilation was investigated arteries was precontracted with U46619 (1.10^−7-3.10^−7 M) or K^+ (41 mM) and cumulative concentration-response curves was performed by adding calcitonin gene-related peptide (CGRP, 10^−12-10^−7 M), carbachol (10^−10-10^−5 M) or SNP (10^−11-10^−4 M).
# If there was only one curve above the cut-off, the concentration-response curve to ET-1 was prioritized. Segments with the highest K^+ response were generally allocated to the concentration-response curve to ET-1. […] The Ca^2+ free buffer solution had similar composition as above, but 1.5 mM CaCl2 was exchanged with 0.03 mM EDTA.
# Contractile responses of each segment were adjusted according to the length of the artery and are expressed as mN/mm (Nm^−1). […] To compare ET-1 sensitivity, arteries were normalized to the percentage of the individual vessel ET-1max. When the artery reached maximum contraction before the last concentration was added, the curves were constrained to the max contraction. The relative log IC50/log EC50 is the concentration corresponding to a response midway between the estimates of the lower and upper plateaus. The Emax is the maximal contraction in the concentration response curve and ET-1max is the maximal contraction to ET-1. All quantitative data is presented as mean±standard error of the mean (SEM), unless otherwise stated.
# Rats were anesthetized and prepared for cisternal infusion of autologous blood, which simulates a SAH. Sham-operated rats went through the same procedure, omitting the intracisternal blood injection of 300 μL. At the end of the procedure, a PinPort (PNP3F22, Instech, US) was placed at the end of the ICP catheter to provide access for intrathecal (i.t.) injectable treatments by a PinPort injector (PNP-3M, Instech, US). 24 hours post-surgery, the rats received s.c. injections of Carprofen (Norodyl, 5 mg/kg) (Scanvet, Denmark) for analgesia.
# The intrathecal (i.t.) treatment volumes were estimated for a cerebrospinal fluid (CSF) volume of approximately 90 μL (21) and the total dose was administered as three treatments (4 hours, 10 hours and 24 hours) through the PinPort in the ICP catheter placed in the cisterna magna during the surgical procedure. The first and third injections were given under fixation of the rat. […] Animals were given 2.5 ml isotonic saline s.c. to avoid dehydration, immediately after surgery and in conjunction with the 10 hours and 24 hours treatments.
smiles,measurement,setting,value
CC(=O)Nc1cccc(-n2c(=O)n(C3CC3)c(=O)c3c(Nc4ccc(I)cc4F)n(C)c(=O)c(C)c32)c1 [trametinib],increased ET-1-induced vasoconstriction of MCAs,"[1]; 0.1 μM, 48 h OC",total blockage of the ETB receptor subtype response; also recorded: significantly inhibit; also recorded: inhibitory effect
same,S6c-induced contraction of MCAs,"[1]; 48 h OC, 5, 1, 0.1 or 0.03 μM, concentration-dependent",significantly inhibited
same,increased ETB receptor protein expression in SMC,[2],not significant abolished
same,K+ responses compared to i.t. vehicle,[3]; SAH + i.t. treatment,higher K^+ responses
same,"contraction at low ET-1 concentrations (10^-12.5-10^-11.0 M), ET-1max normalised, vs SAH+vehicle",[3]; SAH + i.t. treatment,significantly reduced
same,nimodipine insensitive ET-1max contraction,"[3]; SAH + i.t. treatment, Ca2+ curve, 10^-7 M nimodipine",1.8±0.5 Nm^−1
same,contractile response of BAs to 60 mM K+,"[3]; SAH + i.t. treatment, all BAs incl. below cut-off",5.00±0.29 Nm^−1
same,endothelium function,[3]; animals treated in vivo i.t. after SAH,No significant changes
